Tests used:
[1] = Stability study of misoprostol oil at 25° C. (HPLC content, physical form); format: physicochemical
Protocol: Misoprostol stability was tested over a period of 6 months. The misoprostol tested was the commercially available misoprostol in the form of an oil. Misoprostol was stored at a temperature of 25° C., and misoprostol content measured using HPLC at 0, 2, 4, 8 weeks and 3 and 6 months.

[2] = Comparative stability at 25° C. of dinoprostone bulk drug crystal and dinoprostone in polyurethane hydrogel; format: physicochemical
Source text: Measurements are taken at 0, 1, 2, 3, and 6 months. The following results are for comparative purposes only and are not intended to form part of the present invention.

| Structure (SMILES) | Misoprostol content [1]; 0 | Physical form [1]; 0 | Misoprostol content ([1]; 2 w) | Physical form ([1]; 2 w) | Misoprostol content ([1]; 3 m) | Physical form ([1]; 3 m) | Misoprostol content ([1]; 4 w) | Physical form ([1]; 4 w) | Misoprostol content ([1]; 6 m) | Physical form ([1]; 6 m) | Misoprostol content ([1]; 8 w) | Physical form ([1]; 8 w) | Stability (FIG. 1) ([1]; in the absence of polyurethane hydrogel) | % potency ([2]; 0 months) | % potency ([2]; 1 month) | % potency ([2]; 3 months) | % potency ([2]; 6 months) |
| --- | --- | --- | --- | --- | --- | --- | --- | --- | --- | --- | --- | --- | --- | --- | --- | --- | --- |
| CCCCC(C)(O)C/C=C/[C@H]1[C@H](O)CC(=O)[C@@H]1CCCCCCC(=O)OC (mixture of isomers) [Misoprostol, (11α,13E)-(±)-11,16-Dihydroxy-16-methyl-9-oxoprost-13-en-1-oic acid methyl ester] | 101.59 % w/w | Colourless | 99.61 % w/w | Colourless | 93.63 % w/w | Straw | 98.59 % w/w | Colourless | 57.07 % w/w | Yellow | 96.87 % w/w | Clear | degrades with time | – | – | – | – |
| CCCCC[C@H](O)/C=C/[C@H]1[C@H](O)CC(=O)[C@@H]1C/C=C\CCCC(=O)O [Dinoprostone] | – | – | – | – | – | – | – | – | – | – | – | – | – | 100 % potency | 96 % potency | 89 % potency | 75 % potency |

Reference: US8709482B2, “Stabilised prostaglandin composition” (Ferring B.V., priority 2005, dated 2014)
